{"source": "patent US20220015372A1", "about": "“BIOLOGICALS AND THEIR USE IN PLANTS” (PIONEER HI-BRED INTERNATIONAL, INC., priority 2018, published 2022)", "key": {"[1]": {"tested_on": "Western Corn Rootworm (WCRW, Diabrotica virgifera virgifera)", "assay": "Coleoptera diet based feeding assay, WCRW", "assay_type": "in vivo", "settings": "serial dilutions of Kings Medium fermentate (depsipeptide 55 ug/ml) in artificial diet", "description": "Western Corn Rootworm (WCRW, Diabrotica virgifera virgifera) bioassays were conducted in a 96 well plate format, mixing 10 μl of test sample with 50 μl molten modified Southern Corn Rootworm diet (Frontier Agricultural Sciences, diet F9800B). WCRW neonates were placed into each well before heat sealed with a Mylar film. Holes are punched in the film to allow air exchange. The assay was run four days at 25° C. in the dark. The plates were then scored for insect mortality and stunting of insect growth. The scores were noted as dead, severely stunted (little or no growth but alive), stunted (growth but not equivalent to controls) or no activity."}, "[2]": {"tested_on": "corn earworm (Hehcoverpa zea)", "assay": "Lepidoptera diet-based feeding assay, CEW", "assay_type": "in vivo, Helicoverpa zea", "settings": "serial dilutions of Kings Medium fermentate (depsipeptide 55 ug/ml) in artificial diet", "description": "(§1) Lepidopteran feeding assays (including FAW) were conducted on an artificial diet containing fermented broth in a 96 well plate set up. The broth was incorporated with multi-species Lepidopteran artificial diet (Southland Products Inc., Arkansas) in a ratio of 25 μl test sample and 35 μl of diet. Two to five neonate larvae were placed in each well to feed for 4 days. Results were expressed as positive for larvae reactions such as stunting and/or mortality. Results were expressed as negative if the larvae were similar to the negative control that is fed diet to which the above control broth only has been applied."}, "[3]": {"tested_on": "soybean looper (SBL, Pseudoplusia includens)", "assay": "Lepidoptera diet-based feeding assay, SBL", "assay_type": "in vivo", "settings": "serial dilutions of Kings Medium fermentate (depsipeptide 55 ug/ml) in artificial diet", "description": "as §1"}, "[4]": {"tested_on": "Fall Armyworm (FAW, Spodoptera frugiperda)", "assay": "Lepidoptera diet-based feeding assay, FAW", "assay_type": "in vivo", "settings": "serial dilutions of Kings Medium fermentate (depsipeptide 55 ug/ml) in artificial diet", "description": "as §1"}, "[5]": {"tested_on": "European corn borer (ECB, Ostrinia nubilalis)", "assay": "Lepidoptera diet-based feeding assay, ECB", "assay_type": "in vivo", "settings": "serial dilutions of Kings Medium fermentate (depsipeptide 55 ug/ml) in artificial diet", "description": "as §1"}, "FAW": {"tested_on": "FAW", "assay": "Medium-sized plant-based assay on corn, FAW", "assay_type": "in vivo, Spodoptera frugiperda", "design": "key to insect live or dead: live=F; dead=K", "description": "(§2) Broths A and B were tested against four insect species in medium insect test units; DBM, FAW, beet armyworm (Spodoptera exigua; BAW), and corn earworm (Helicoverpa zea; CEW). Test units were comprised of 70 cm^3 bases with 35 g of Woodstown Sandy Loam soil (Delmar, Del.) and mustard (Brassicae kaber; 6.5-7 cm), corn (Zea mays; 7-8 cm) or Bush bean (Phaseolus vulgaris; 6-7cm) as host plants for DBM, FAW and BAW, and CEW, respectively. Three concentrations of Broths A and B were tested: 0.25, 0.5 and 1×, with and without the surfactant X-77. Spinetoram was included as a positive control. Untreated controls were also included. Test units were sprayed with 1.2 mL of broth, in triplicate, and subsequently infested with approximately 15-20 stage 1 BAW or FAW larvae, or 30-40 neonate DBM or CEW. Units were kept in controlled conditions of 25° C./70% RH/16:8 h (L:D) photoperiod for six days and then scored. There are two scores given for each treatment, (1) plant damage rating from 0-10, with 0 being no damage and 10 being plant was completely consumed, and (2) insect live or dead (live=F; dead=K). The scores are averages of the three technical replicates. Any treatment with a plant damage score of 3 or less and an insect rating of K was considered to be active."}, "[6]": {"tested_on": "beet armyworm (Spodoptera exigua; BAW)", "assay": "Medium-sized plant-based assay on corn, BAW", "assay_type": "in vivo", "design": "key to insect live or dead: live=F; dead=K", "description": "as §2"}, "[7]": {"tested_on": "corn earworm (Helicoverpa zea; CEW)", "assay": "Medium-sized plant-based assay on bush bean, CEW", "assay_type": "in vivo", "design": "key to insect live or dead: live=F; dead=K", "description": "as §2"}, "[8]": {"settings": "0.1 ppm, Table 3 assay without X-77, six days"}, "[9]": {"settings": "0.1 ppm, Table 4 assay with X-77, six days"}, "[10]": {"settings": "0.2 ppm, Table 3 assay without X-77, six days"}, "[11]": {"settings": "0.2 ppm, Table 4 assay with X-77, six days"}, "[12]": {"settings": "2 ppm, Table 3 assay without X-77, six days"}, "[13]": {"settings": "2 ppm, Table 4 assay with X-77, six days"}}}
{"substance": "FR901375 [depsipeptide]", "values": [{"measurement": "minimal dose to achieve 100% mortality", "setting": "[1]", "value": 23, "unit": "ppm"}, {"measurement": "minimal dose to achieve 100% mortality", "setting": "[2]", "value": 11, "unit": "ppm"}, {"measurement": "minimal dose to achieve 100% mortality", "setting": "[3]", "value": 1, "unit": "ppm"}, {"measurement": "minimal dose to achieve 100% mortality", "setting": "[4]", "value": 2, "unit": "pmm"}, {"measurement": "minimal dose to achieve 100% mortality", "setting": "[5]", "value": 2, "unit": "ppm"}]}
{"substance": "Spinetoram", "values": [{"measurement": "insect live or dead", "setting": "FAW; [8]", "value": "F"}, {"measurement": "plant damage rating from 0-10", "setting": "FAW; [8]", "value": 5}, {"measurement": "insect live or dead", "setting": "FAW; [9]", "value": "F"}, {"measurement": "plant damage rating from 0-10", "setting": "FAW; [9]", "value": 5}, {"measurement": "insect live or dead", "setting": "FAW; [10]", "value": "K"}, {"measurement": "plant damage rating from 0-10", "setting": "FAW; [10]", "value": 1}, {"measurement": "insect live or dead", "setting": "FAW; [11]", "value": "K"}, {"measurement": "plant damage rating from 0-10", "setting": "FAW; [11]", "value": 1}, {"measurement": "insect live or dead", "setting": "FAW; [12]", "value": "K"}, {"measurement": "plant damage rating from 0-10", "setting": "FAW; [12]", "value": 0}, {"measurement": "insect live or dead", "setting": "FAW; [13]", "value": "K"}, {"measurement": "plant damage rating from 0-10", "setting": "FAW; [13]", "value": 0}, {"measurement": "insect live or dead", "setting": "[6]; [8]", "value": "F"}, {"measurement": "plant damage rating from 0-10", "setting": "[6]; [8]", "value": 7}, {"measurement": "insect live or dead", "setting": "[6]; [9]", "value": "F"}, {"measurement": "plant damage rating from 0-10", "setting": "[6]; [9]", "value": 7}, {"measurement": "insect live or dead", "setting": "[6]; [10]", "value": "F"}, {"measurement": "plant damage rating from 0-10", "setting": "[6]; [10]", "value": 4}, {"measurement": "insect live or dead", "setting": "[6]; [11]", "value": "F"}, {"measurement": "plant damage rating from 0-10", "setting": "[6]; [11]", "value": 4}, {"measurement": "insect live or dead", "setting": "[6]; [12]", "value": "K"}, {"measurement": "plant damage rating from 0-10", "setting": "[6]; [12]", "value": 0}, {"measurement": "insect live or dead", "setting": "[6]; [13]", "value": "F"}, {"measurement": "plant damage rating from 0-10", "setting": "[6]; [13]", "value": 4}, {"measurement": "insect live or dead", "setting": "[7]; [8]", "value": "K"}, {"measurement": "plant damage rating from 0-10", "setting": "[7]; [8]", "value": 1}, {"measurement": "insect live or dead", "setting": "[7]; [9]", "value": "K"}, {"measurement": "plant damage rating from 0-10", "setting": "[7]; [9]", "value": 1}, {"measurement": "insect live or dead", "setting": "[7]; [10]", "value": "K"}, {"measurement": "plant damage rating from 0-10", "setting": "[7]; [10]", "value": 1}, {"measurement": "insect live or dead", "setting": "[7]; [11]", "value": "K"}, {"measurement": "plant damage rating from 0-10", "setting": "[7]; [11]", "value": 1}, {"measurement": "insect live or dead", "setting": "[7]; [12]", "value": "K"}, {"measurement": "plant damage rating from 0-10", "setting": "[7]; [12]", "value": 0}, {"measurement": "insect live or dead", "setting": "[7]; [13]", "value": "K"}, {"measurement": "plant damage rating from 0-10", "setting": "[7]; [13]", "value": 0}]}
